Test results from US20260137758A1, “TREATMENT OF STEATOTIC LIVER DISEASE ASSOCIATED WITH METABOLIC DYSFUNCTION” (priority 2024, published 2026).
Starred links: 1 amine or outer side, 2 acyl side, 3 side chain; linkers in the order of their positions; H or OH if unused. Non-standard residues stand in square brackets, D forms with d. Residues, ends and D or L forms follow the SMILES beside them. Groups on a side chain read outwards from the residue. *: point of attachment. Isobutyryl(2-(3-CN-5-F-Ph)) = CC(C)(C(=O)*)c1cc(F)cc(C#N)c1; C20 diacid = O=C(O)CCCCCCCCCCCCCCCCCCC(=O)*; γGlu = O=C(O)[C@H](CCC(=O)[*:2])N[*:1]; AEEA = NCCOCCOCC(=O)O; Aib = CC(C)(N)C(=O)O; βAla = NCCC(=O)O

What was measured:
human GIPR [1] = molecular target: T1, human GIPR (Homo sapiens, UniProt P48546); experiment: β-arrestin-2 recruitment (NanoBiT), HEK293, human GIPR; type: cell-based; design: expressed in transfected cells; host or cells: HEK293 (stably or transiently transfected); settings: HEK293, read-out: β-arrestin-2 % Emax
T1 sequence (P48546 22-466): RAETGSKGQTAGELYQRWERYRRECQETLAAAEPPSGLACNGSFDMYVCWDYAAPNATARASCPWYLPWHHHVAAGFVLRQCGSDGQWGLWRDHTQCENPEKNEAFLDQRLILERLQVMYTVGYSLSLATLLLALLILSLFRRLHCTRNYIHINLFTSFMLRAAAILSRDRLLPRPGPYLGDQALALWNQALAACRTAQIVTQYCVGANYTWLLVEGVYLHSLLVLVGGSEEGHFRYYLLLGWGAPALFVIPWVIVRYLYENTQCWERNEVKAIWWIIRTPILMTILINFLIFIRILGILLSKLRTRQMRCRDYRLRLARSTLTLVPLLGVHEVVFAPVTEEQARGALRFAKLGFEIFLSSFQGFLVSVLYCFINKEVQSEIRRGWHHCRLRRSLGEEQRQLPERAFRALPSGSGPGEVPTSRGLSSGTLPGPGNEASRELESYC
Procedure: (§1) β-arrestin recruitment was measured using Promega's NanoBiT technology and Nano-Glo® Live Cell Substrate in HEK293 cells. β-arrestin-2 recruitment was measured using Promega's NanoBiT technology and Nano-Glo® Live Cell Substrate (catalog number N2012), which uses the NanoLuc luciferase split into two subunits called LgBiT and SmBiT. HEK293 cells were either stably or transiently transfected with equal amounts of DNA plasmids expressing the fusion proteins human GLP-1R-LgBiT or GIPR-LgBiT and SmBiT-(human)-β-arrestin-2; similar methods were used for mouse GLP-1R, GIPR, and β-arrestin-2. […] The following day, the media was removed and replaced with 10 μL of a 1:100 dilution of Nano-Glo® Live Cell Substrate with NanoBiT buffer and OptiMem and equilibrated to room temperature for ten minutes covered. Background luminescence was measured before adding 100 nL of compound dilutions (made in a 1:1 ratio in DMSO). Compounds were transferred using an ECHO Acoustic Liquid Handler (Beckman Coulter) and luminescence was measured at 1.5-minute intervals for 15 minutes using an EnVision Multimode Plate Reader (PerkinElmer; Waltham, MA).
(§2) Each dilution series was normalized to the adjacent high (100%) and low (0%) wells on the plate. […]
(§3) and the Hillslope was constrained to 1. […] For NanoBiT assays, a single time point during the 30-minute activity measurements was selected for maximum luminescence response. […]

human GIPR [2] = molecular target: T1, human GIPR; experiment: cAMP accumulation (HitHunter), CHO-K1 cells expressing SNAP-human GIPR; type: cell-based; design: expressed in transfected cells
Procedure: (§4) cAMP production was measured using the HitHunter® cAMP Assay for Small Molecules kit in mammalian cell lines overexpressing either GLP-1R or GIPR. […] A total of 10,000 cells in 5 μL of media were added to each well of a 384-well, low-volume assay plate. For mouse receptor cAMP assays, either U2OS cells stably expressing mouse GLP-1R (DiscoverX 95-0179C3) or CHO-K1 cells stably expressing mouse GIPR (DiscoverX 95-0154C2) were used. Twenty-four hours before the assay, 5000-10,000 cells per well were plated in 384-well, low-volume tissue culture-treated plates in Assay Complete Cell Plating reagent 2 (murine GIPR cells) or 5 (murine GLP-1R cells). […] Compounds were diluted 1:1 in DMSO and 5 nL was transferred to the tissue-culture plate wells using an ECHO Acoustic Liquid Handler (Beckman Coulter).
(§5) Each dilution series was normalized to the adjacent high (100%) and low (0%) wells on the plate. Dose-response data were fitted to a curve using nonlinear regression analysis using the “log(agonist) vs response-variable slope” setting, where:
(§6) Y=Bottom+(Top−Bottom)/(1+10^((Log EC50−X)*HillSlope))
(§7) and the Hillslope was constrained to 1. Compound potency and efficacy were extracted from this regression analysis. […] For NanoBiT assays, a single time point during the 30-minute activity measurements was selected for maximum luminescence response. […]

human GLP-1R [3] = molecular target: T2, human GLP-1R (Homo sapiens, UniProt P43220); experiment: cAMP accumulation (HitHunter), CHO-K1 cells expressing SNAP-human GLP-1R; type: cell-based; design: expressed in transfected cells
Procedure: as §4, §5, §6, §7

[4] = Phase 1 SAD: pharmacokinetics; type: in vivo; settings: human, serum; SAD Cohort 4 (6.0 mg) single SC dose; read-out: Vz/F (mean)
Source text: PK parameters were also summarized using descriptive statistics (number of participants, mean, geometric mean, standard deviation, coefficient of variation, median, minimum, and maximum). In the SAD portion, the power model was used to assess dose proportionality.

human GLP-1R [5] = molecular target: T2, human GLP-1R; experiment: β-arrestin-2 recruitment (NanoBiT), HEK293, human GLP-1R; type: cell-based; design: expressed in transfected cells; host or cells: HEK293 (stably or transiently transfected); settings: HEK293, read-out: β-arrestin-2 % Emax
Procedure: as §1, §2, §3

human GLP-1R [6] = molecular target: T2, human GLP-1R; experiment: Receptor internalization (Nano-Glo HiBiT), HEK293, human GLP-1R; type: cell-based; design: expressed in transfected cells
Procedure: Receptor internalization for human GLP-1R and GIPR was measured with Promega's Nano-Glo® HiBit extracellular detection system in HEK293 cells. Receptor internalization for human GLP-1R and GIPR was measured using the Promega Nano-Glo© HiBit extracellular detection system (Promega Corporation). HEK293 cells were transiently transfected with 1000:1 ratio of carrier plasmid (pcDNA3.1) and plasmids containing HiBiT-tagged human GLP-1R or human GIPR sequences (Promega Corporation). Cells were dissociated the following day using TrypLE express enzyme (ThermoFisher Scientific) and plated in 96-well plates at 80,000-100,000 cells per well. Forty-eight hours post-transfection, media was replaced with equal parts CO2 independent media (Gibco) and Nano-Glo extracellular buffer containing LgBiT protein (diluted 1:100), and Nano-Glo HiBiT extracellular substrate (diluted 1:50). After a 15-minute equilibration and background luminescence reading, test compounds were added and the luminescence was measured for 120 minutes at two-minute intervals using an EnVision Multimode Plate Reader (PerkinElmer).
as §7

T2 sequence (P43220 24-463): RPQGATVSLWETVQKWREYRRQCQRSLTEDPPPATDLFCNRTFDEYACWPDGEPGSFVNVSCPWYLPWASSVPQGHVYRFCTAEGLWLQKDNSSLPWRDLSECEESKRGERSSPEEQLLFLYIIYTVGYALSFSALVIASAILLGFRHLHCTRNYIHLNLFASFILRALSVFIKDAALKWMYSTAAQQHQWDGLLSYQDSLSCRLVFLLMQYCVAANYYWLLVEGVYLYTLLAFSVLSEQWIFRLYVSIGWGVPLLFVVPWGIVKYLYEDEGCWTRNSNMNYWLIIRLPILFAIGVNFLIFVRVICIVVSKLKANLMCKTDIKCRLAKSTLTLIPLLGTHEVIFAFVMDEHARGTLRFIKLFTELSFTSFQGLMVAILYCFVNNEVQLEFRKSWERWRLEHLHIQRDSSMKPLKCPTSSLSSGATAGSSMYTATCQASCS

CC[C@H](C)[C@H](NC(=O)[C@H](CC(C)C)NC(=O)[C@H](Cc1c[nH]c2ccccc12)NC(=O)[C@H](CCC(N)=O)NC(=O)[C@@H](NC(=O)[C@H](Cc1ccccc1)NC(=O)[C@H](C)NC(=O)[C@H](CCCCNC(=O)COCCOCCNC(=O)COCCOCCNC(=O)CC[C@H](NC(=O)CCCCCCCCCCCCCCCCCCC(=O)O)C(=O)O)NC(=O)[C@H](CCC(N)=O)NC(=O)[C@H](C)NC(=O)[C@@H](NC(=O)[C@H](CCCCN)NC(=O)[C@H](CC(=O)O)NC(=O)[C@H](CC(C)C)NC(=O)C(C)(C)NC(=O)[C@@H](NC(=O)[C@H](CO)NC(=O)[C@H](Cc1ccc(O)cc1)NC(=O)[C@H](CC(=O)O)NC(=O)[C@H](CO)NC(=O)[C@@H](NC(=O)[C@H](Cc1ccccc1)NC(=O)[C@@H](NC(=O)CNC(=O)[C@H](CCC(=O)O)NC(=O)CCNC(=O)C(C)(C)c1cc(F)cc(C#N)c1)[C@@H](C)O)[C@@H](C)O)[C@@H](C)CC)[C@@H](C)CC)C(C)C)C(=O)N[C@@H](C)C(=O)NCC(=O)NCC(=O)N1CCC[C@H]1C(=O)N[C@@H](CO)C(=O)N[C@@H](CO)C(=O)NCC(=O)N[C@@H](C)C(=O)N1CCC[C@H]1C(=O)N1CCC[C@H]1C(=O)N1CCC[C@H]1C(=O)N[C@@H](CO)C(N)=O [CT-388] ({Isobutyryl(2-(3-CN-5-F-Ph))-βAla}-EGTFTSDYSI[Aib]LDKIAQK([AEEA-AEEA-γGlu-C20 diacid])AFVQWLIAGGPSSGAPPPS-NH2)
Emax (human GIPR [1]): 28% | Emax (human GIPR [2]): 92% | Emax (human GLP-1R [3]): 99% | Vd/F [4]: 11.4 L | Emax (human GLP-1R [5]): 4% | Emax (human GLP-1R [6]): 6%
